Assay results: US20210000750A1, “ENGINEERED NANOVESICLES AS CHECKPOINT BLOCKADE FOR CANCER IMMUNOTHERAPY” (NORTH CAROLINA STATE UNIVERSITY, priority 2018, published 2021)

Assays:
B16F10 melanoma tumor = experiment: In vivo anti-tumor efficacy study of NVs; parameters: species or system C57BL/6 mice; conditions: seven-group study, every 3 days for five cycles
Experimental: Female C57BL/6 mice were purchased from Jackson Lab (USA). All mouse studies were performed in the context of an animal protocol approved by the Institutional Animal Care and Use Committee at North Carolina State University and University of North Carolina at Chapel Hill. Mice were weighed and randomly divided into different groups. 5 d after 1×10^6 B16F10 tumor cells subcutaneously transplanted into the abdomen of mice (the tumor reaches 40-50 mm^3), PBS, Free nanovesicles (25 mg/kg), PD-1 nanovesicles (25 mg/kg), 1-MT (2.5 mg/kg), 1-MT loaded PD-1 nanovesicles (25 mg/kg), anyi-PD-L1 antibody (2 mg/kg) were administered into mice by tail-vein injection. Tumor incidences were monitored by physical examination and sizes were also measured by digital caliper over time. Tumors were measured by using a vernier calipers and the volume (V) was calculated to be V=d^2×D/2, where d is the shortest and the D is longest diameter of the tumor in mm respectively. To assess potential toxicities, mice were monitored daily for weight loss. For survival assays, the experiments were performed separately.
Bioluminescence images were collected with a Xenogen IVIS Spectrum Imaging System. Living Image software (Xenogen) was used to acquire the data 10 min after intraperitoneal injection of d-luciferin (Pierce) in DPBS (15 mg/mL) into animals (10 μL/g of body weight).

[1] = tested on: B16F10 melanoma residual tumor; experiment: In vivo anti-tumor efficacy, incomplete-tumor-resection model; parameters: species or system C57BL/6 mice; conditions: five-group cyclophosphamide study
Description: (§1) B16F10 luciferase-tagged B16F10 (1×10^6) melanoma tumor cells were transplanted into the right flank of C57BL/6 mice. Eight days after tumor inoculation, the tumors volume reach around ˜150 mm^3. These tumors were then resected, leaving about 15 mm^3 (10%) tumor volume to mimic the residual tumors in the surgical bed. Briefly, animals were anesthetized in an induction chamber using isoflurane (up to 5% for induction; 1-3% for maintenance), and anaesthesia was maintained via a nose cone. The tumor area was clipped and aseptically prepped. Sterile instruments were used to remove approximately 90% of the tumor. The wound was closed using an Autoclip wound closing system. The mice were randomly divided into several groups of eight mice (n=8) as indicated. The mice firstly were intravenously injected with different treatment formulations: PBS, free platelets […], PD-1 platelets (˜2×10^8), cyclophosphamide (20 mg/kg), cyclophosphamide loaded free platelets (˜2×10^8) or cyclophosphamide loaded PD-1 platelets (˜2×10^8). Immediately after the injection, the surgery was carried out within 10 min one mouse by one mouse. The tumor burden was monitored via the bioluminescence of the cancer cells.

CD8^+ TILs = format: in vivo, C57BL/6 mice; conditions: five-group cyclophosphamide study
Experimental: Tumors were dissected from the mice and snap frozen in optimal cutting medium (O.C.T.). Several micrometer sections were cut using a cryotome and mounted on slides. The frozen tumor sections were incubated in PBS for 15 min to remove the embedding medium. The specimens were blocked with the buffer containing 3% BSA. Subsequently, the specimens incubated with CD4 and CD8 primary antibodies (1:50 in 3% BSA) overnight and then washed three times with PBS for 5 min each. After that the specimens were incubated with TRITC secondary antibody (KPL) diluted in 3% BSA at room temperature in the dark for 1 h. Finally, the nucleus was stained with DAPI, and the tissue was washed three times with PBS for 5 min each. Confocal microscopy was performed on a FLUO-VIEW laser scanning confocal microscope […] in sequential scanning mode using a 40×objective.

Tregs = format: in vivo, C57BL/6 mice; conditions: five-group cyclophosphamide study
[2] = five-group cyclophosphamide study
Description: as §1

Structure (SMILES)	suppression of tumor growth (B16F10 melanoma tumor)	tumor progression [1]	frequency of Ki67+ T cells (CD8^+ TILs)	Tregs within the tumor (Tregs)	hair growth and weight loss [2]
Cn1cc(C[C@H](N)C(=O)O)c2ccccc21 [1-MT, 1-methyl-tryptophan]	limited suppression of tumor growth				
O=P1(N(CCCl)CCCl)NCCCO1 (centres unmarked) [cyclophosphamide]		limited results	increased the frequency	selectively depleted Tregs	delayed hair growth in the abdomen and slighted weight loss
